The values that follow come from publication PMC3017812 (Chembiochem : a European journal of chemical biology, 2010).

pKd: −log10 of the molar value.

The target of this assay is His-tagged MDM2 (Homo sapiens, UniProt Q00987). Nature of the assay: competitive fluorescence polarization binding assay.

Regarding `CC(C)C[C@H](NC(=O)[C@H](CC(=O)O)NC(=O)[C@H](CO)NC(=O)[C@H](Cc1ccccc1)N1C/C=C/CCC(=O)N[C@@H](CCC(=O)O)C(=O)N[C@@H](C)C1=O)C(=O)N[C@@H](Cc1c[nH]c2ccccc12)C(=O)N[C@@H](CCCCN)C(=O)N[C@@H](CC(C)C)C(=O)N[C@@H](CC(C)C)C(=O)N1CCC[C@H]1C(=O)N[C@@H](CCC(=O)O)C(=O)N[C@@H](CC(N)=O)C(=O)N[C@@H](CC(N)=O)C(=O)N[C@H](C(N)=O)C(C)C` [HBS 2], the “fold lower affinity for MDM2 relative to peptide 1” value (fluorescence polarization assay, compared with unconstrained peptide 1) was “seven-fold lower affinity”.
For the molecule “HBS 3: negative control of 2, Phe-19 and Leu-26 mutated to alanine (EAASDLWKLAPENNV)”, for the setting “read-out: KD, binding affinity for MDM2, competitive fluorescence polarization assay, His-tagged MDM2”, the pKd was under 3.90.

The pKd is −log10 of the Kd, conventionally taken in molar units.
